Data reported in article PMC10072326, “Promising anticancer agents based on 8-hydroxyquinoline hydrazone copper(II) complexes” (Frontiers in Chemistry, 2023).

What was measured:
A-375 cells = assay: Sulforhodamine B (SRB) cell viability assay; type: cell-based; conditions: 72 h
A-549 cells = assay: Sulforhodamine B (SRB) cell viability assay; type: cell-based; conditions: 72 h
calf thymus DNA (ctDNA) = assay: ctDNA thermal denaturation; type: binding; conditions: for ΔTm: equimolar amounts of compound and DNA, HEPES 0.01 M, pH 7.4; for melting temperature Tm of ctDNA with compound: equimolar mixtures (25 µM), 10 mM HEPES pH 7.4, 1.5% DMSO
Excerpt: Nucleic acids are potential targets for metallodrugs and, consequently, evaluation of the interactions of the compounds with DNA and corresponding binding strength is relevant under the scope of this work. Thermal denaturation is a useful technique to measure the stability of the secondary structure of DNA (29). Under the chosen experimental conditions (HEPES, 0.01 M, pH 7.4), it is possible to follow the denaturation of calf thymus DNA (ctDNA) double strand.

[1] = biological target: bovine serum albumin (BSA) (Bos taurus, UniProt P02769); assay: BSA fluorescence quenching; type: binding; design: Affinity constant K ± SD: unit not given here; conditions: for Affinity constant K ± SD: fluorescence quenching, HypSpec2014, 1:1 species assumed
Description: To evaluate the interaction of the compounds, both organic and Cu(II) complexes, with bovine serum albumin (BSA) fluorescence spectra were measured. In a typical fluorescence experiment, to a solution of 1.5 μM of BSA in the same buffer, successive aliquots of a stock solution of each compound in DMSO were added directly to the cuvette (optical path 1.0 cm). The fluorescence emission was recorded between 310 and 600 nm with excitation at 295 nm. The final DMSO % was kept below 2% (v/v). The Stern-Volmer plots were built using the emission at 340 nm and blank samples (in the absence of BSA) with the same concentration of the complexes were recorded and subsequently subtracted from the corresponding emission spectra containing the fluorophore. Moreover, the fluorescence emission intensity was corrected for reabsorption and inner filter effects using UV-Vis absorption data recorded for each sample, since all complexes absorb in the measured wavelength range (19, 20).
The interaction of the organic compounds and Cu(II) complexes with BSA was monitored by studying the quenching of albumin’s fluorescence emission with increasing concentrations of the complexes (25). Overall, the intensity of the Trp emission decreases with the addition of the complexes, except for 8 (see Figs. S19). The Stern-Volmer relationship was used to analyse the fluorescence quenching process:
where I0 and I are the fluorescence intensities in the absence and in the presence of quencher, kq is the bimolecular quenching rate, τ0 is the fluorophore lifetime in the absence of the quencher (6.22 ns) (26) and [Q] is the quencher concentration. […] This linear relationship is obeyed for all complexes except 5, where a downward curvature is observed. This can be an indication of two distinct binding sites, corresponding to two populations of fluorophores, one being accessible and other inaccessible or buried inside the protein. In such cases, the Stern-Volmer relation can be modified to (27):
where ΔI = I0 – I, Ka is the Stern-Volmer constant for the accessible fraction and fa is the fraction of accessible fluorophore. […] As first approximation, the total concentration of quencher was used to check the quenching mechanism. […] As all systems presented high absorbance values in the measured range of wavelengths, no excess of quencher was used and, therefore, 1:1 species will be assumed for these interactions.

[2] = test system: Klebsiella pneumoniae ATCC 49619; assay: MIC determination; type: cell-based; conditions: K. pneumoniae; 18 h
Description: (§1) Wild-type Escherichia coli K-12 AG100 strain [argE3 thi-1 rpsL xyl mtl Δ(gal-uvrB) supE44] expressing the AcrAB TolC efflux pump at its basal level and Klebsiella pneumoniae ATCC 49619 Gram-negative strains were studied in the experiments. Sensitive (ATCC 25928) and the methicillin-resistant (MRSA 272123) subspecies of Staphylococcus aureus were used as Gram-positive strains in the assays.
(§2) Minimum inhibitory concentration (MIC) values of selected compounds were determined in 96-well plates based on the Clinical and Laboratory Standard Institute guidelines (CLSI guidelines). The stock solutions of the compounds were dissolved in DMSO using 1.3 μL of Mueller Hinton Broth, and then two-fold serial dilutions were performed. The starting concentration of the compounds was 100 μM. Then 10^‒4 dilution of an overnight bacterial culture in 100 μL of medium was added to each well, except for the medium control wells.

[3] = test system: Escherichia coli K-12 AG100; assay: MIC determination; type: cell-based; conditions: E. coli; 18 h
Description: as §1, §2

S. aureus ATCC 25928 = assay: MIC determination; type: cell-based, Staphylococcus aureus; conditions: S. aureus ATCC 25928 (sensitive); 18 h
Description: as §1, §2

Sequence of bovine serum albumin (BSA) (P02769 25-607): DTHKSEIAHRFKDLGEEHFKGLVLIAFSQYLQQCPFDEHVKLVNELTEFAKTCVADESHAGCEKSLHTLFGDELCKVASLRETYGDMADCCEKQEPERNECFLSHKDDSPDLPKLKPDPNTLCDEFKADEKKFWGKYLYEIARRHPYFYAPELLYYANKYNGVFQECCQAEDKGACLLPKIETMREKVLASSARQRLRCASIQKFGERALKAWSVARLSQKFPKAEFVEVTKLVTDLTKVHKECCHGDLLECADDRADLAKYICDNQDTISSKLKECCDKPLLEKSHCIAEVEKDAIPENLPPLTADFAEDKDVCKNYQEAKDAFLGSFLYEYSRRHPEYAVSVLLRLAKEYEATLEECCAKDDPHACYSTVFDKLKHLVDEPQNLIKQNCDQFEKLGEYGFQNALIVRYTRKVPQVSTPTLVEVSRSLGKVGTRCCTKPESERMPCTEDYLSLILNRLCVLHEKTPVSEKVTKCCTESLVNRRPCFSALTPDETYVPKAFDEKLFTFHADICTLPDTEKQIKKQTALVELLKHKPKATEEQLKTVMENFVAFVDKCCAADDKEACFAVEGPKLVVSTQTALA

Row | Structure (SMILES) | IC50 (A-375 cells) [µM] | IC50 (A-549 cells) [µM] | ΔTm (calf thymus DNA (ctDNA)) [°C] | Affinity constant K ± SD [1] | MIC [2] [µM] | MIC [3] [µM] | MIC (S. aureus ATCC 25928) [µM] | melting temperature Tm of ctDNA with compound (calf thymus DNA (ctDNA)) [°C] | Stern-Volmer constant for the accessible fraction Ka ([1]; modified Stern-Volmer) [M⁻¹] | fraction of accessible fluorophore fa ([1]; modified Stern-Volmer)
1 | CC(=O)[O-].O=C(NN=Cc1ccc2cccc([O-])c2n1)c1ccccc1.[Cu+2] [Complex 1, [Cu(HL^1)(AcO)]] | 2.7 ± 0.03 | 4.2 ± 0.2 | >25.0 | (8.4 ± 6.6) × 10^7 | > 100 | > 100 | 50 | – | – | –
2 | [Cu+2].[O-]C(=NN=Cc1ccc2cccc([O-])c2n1)c1ccc(F)cc1 [Complex 3, [Cu(L^3)]3] | 5.1 ± 0.3 | 8.9 ± 0.2 | 13.0 | (3.4 ± 0.7) × 10^5 | > 100 | > 100 | 100 | 73.2 ± 1.7 | – | –
3 | COc1ccc(C([O-])=NN=Cc2ccc3cccc([O-])c3n2)cc1.[Cu+2] [Complex 5, [Cu(L^5)]3] | 3.4 ± 0.1 | 5.1 ± 0.01 | 17.7 | (1.05 ± 0.04) × 10^5 | > 100 | > 100 | 100 | 77.9 ± 1.3 | 2.1e+06 | 0.24
